Measured values taken from PubChem BioAssay (NCI).
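Cultured in 96-well plates, cells were exposed to test compound for 48 hours across five concentrations. At the TGI there is no net growth.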

Tests used:
Assay in all cases: DTP human tumour cell line panel, 48 h
[1] = system: HCT-116 colon
[2] = system: HOP-62 NSCLC
[3] = system: TK-10 renal
[4] = system: SK-OV-3 ovarian
[5] = system: OVCAR-3 ovarian
[6] = system: NCI/ADR-RES ovarian
[7] = system: SK-MEL-2 melanoma
[8] = system: SF-268 CNS
[9] = system: RXF 393 renal
[10] = system: SNB-75 CNS
[11] = system: HT29 colon
[12] = system: MDA-N
[13] = system: COLO 205 colon
[14] = system: HOP-92 NSCLC
[15] = system: HCT-15 colon
[16] = system: HS 578T breast
[17] = system: 786-0 renal
[18] = system: KM12 colon
[19] = system: K-562 leukemia
[20] = system: M14 melanoma
[21] = system: PC-3 prostate
[22] = system: A549 NSCLC
[23] = system: IGROV1 ovarian
[24] = system: LOX IMVI melanoma
[25] = system: NCI-H226 lung
[26] = system: ACHN renal
[27] = system: SR leukemia
[28] = system: HCC-2998 colon
[29] = system: UACC-257 melanoma
[30] = system: U251 CNS
[31] = system: EKVX NSCLC
[32] = system: T-47D breast
[33] = system: RPMI-8226 leukemia
[34] = system: DU-145 prostate
[35] = system: NCI-H23 lung
[36] = system: SK-MEL-28 melanoma
[37] = system: OVCAR-4 ovarian
[38] = system: SF-295 CNS
[39] = system: UACC-62 melanoma
[40] = system: SNB-19 CNS
[41] = system: MCF7 breast
[42] = system: SN12C renal
[43] = system: MDA-MB-435
[44] = system: CCRF-CEM leukemia
[45] = system: MOLT-4 leukemia
[46] = system: NCI-H522 lung
[47] = system: CAKI-1 renal
[48] = system: MDA-MB-231 breast
[49] = system: BT-549 breast
[50] = system: NCI-H460 lung
[51] = system: SF-539 CNS
[52] = system: UO-31 renal
[53] = system: OVCAR-8 ovarian
[54] = system: A498 renal
[55] = system: HL-60(TB) leukemia
[56] = system: OVCAR-5 ovarian
[57] = system: MALME-3M melanoma
[58] = system: SK-MEL-5 melanoma
[59] = system: SW-620 colon

Compound: CC(=O)n1nc(-c2ccccc2)n(/N=C/c2ccc([N+](=O)[O-])o2)c1=O
- TGI [1]: 3.71 µM
- TGI [2]: 19.6 µM
- TGI [3]: 25.5 µM
- TGI [4]: 40.2 µM
- TGI [5]: 17 µM
- TGI [6]: 27.5 µM
- TGI [7]: 11.5 µM
- TGI [8]: 14.1 µM
- TGI [9]: 10.4 µM
- TGI [10]: 26.8 µM
- TGI [11]: 21.8 µM
- TGI [12]: 3.92 µM
- TGI [13]: 12.7 µM
- TGI [14]: 35.9 µM
- TGI [15]: 15.4 µM
- TGI [16]: 38 µM
- TGI [17]: 7.97 µM
- TGI [18]: 36.4 µM
- TGI [19]: 37 µM
- TGI [20]: 4.08 µM
- TGI [21]: 30.9 µM
- TGI [22]: 25 µM
- TGI [23]: 37.4 µM
- TGI [24]: 23.2 µM
- TGI [25]: > 19.8 µM
- TGI [26]: 19.1 µM
- TGI [27]: 14.1 µM
- TGI [28]: 19.1 µM
- TGI [29]: 12.2 µM
- TGI [30]: 33.4 µM
- TGI [31]: > 49.1 µM
- TGI [32]: 44.5 µM
- TGI [33]: 28.2 µM
- TGI [34]: 16.7 µM
- TGI [35]: 14.3 µM
- TGI [36]: 22.3 µM
- TGI [37]: 35.6 µM
- TGI [38]: 47.9 µM
- TGI [39]: 23.8 µM
- TGI [40]: 36.9 µM
- TGI [41]: 13.8 µM
- TGI [42]: 7.39 µM
- TGI [43]: 12.1 µM
- TGI [44]: 6.55 µM
- TGI [45]: 18.6 µM
- TGI [46]: 7.15 µM
- TGI [47]: 24.4 µM
- TGI [48]: 17.1 µM
- TGI [49]: 17.6 µM
- TGI [50]: 15.9 µM
- TGI [51]: 18.4 µM
- TGI [52]: 4.17 µM
- TGI [53]: 33.3 µM
- TGI [54]: 45 µM
- TGI [55]: 9.73 µM
- TGI [56]: 10.2 µM
- TGI [57]: 16.5 µM
- TGI [58]: 14.8 µM
- TGI [59]: 22.9 µM

Compound: Clc1nncc2sc(-c3ccccc3)nc12
- TGI [1]: 48.9 µM
- TGI [2]: 53.6 µM
- TGI [3]: > 100 µM
- TGI [4]: 80.6 µM
- TGI [5]: 33.8 µM
- TGI [6]: 69.1 µM
- TGI [7]: 47.4 µM
- TGI [8]: 49 µM
- TGI [9]: 50.7 µM
- TGI [10]: > 64.1 µM
- TGI [11]: 68.5 µM
- TGI [12]: 51.4 µM
- TGI [13]: > 86.5 µM
- TGI [14]: 24 µM
- TGI [15]: 36.4 µM
- TGI [16]: 64.7 µM
- TGI [17]: > 100 µM
- TGI [18]: > 72.8 µM
- TGI [19]: > 100 µM
- TGI [20]: 52.3 µM
- TGI [21]: > 58.2 µM
- TGI [22]: > 100 µM
- TGI [23]: 40.3 µM
- TGI [24]: 50.2 µM
- TGI [25]: > 82.4 µM
- TGI [26]: > 84.9 µM
- TGI [27]: > 100 µM
- TGI [28]: > 45.7 µM
- TGI [29]: 56.7 µM
- TGI [30]: > 53.2 µM
- TGI [31]: 12.5 µM
- TGI [32]: > 100 µM
- TGI [33]: > 100 µM
- TGI [34]: 31.8 µM
- TGI [35]: 52.9 µM
- TGI [36]: > 50.8 µM
- TGI [37]: 53.5 µM
- TGI [38]: > 77.4 µM
- TGI [39]: 46.4 µM
- TGI [40]: 51.4 µM
- TGI [41]: > 92.6 µM
- TGI [42]: 57.7 µM
- TGI [43]: 49.6 µM
- TGI [44]: > 94.4 µM
- TGI [45]: > 97.2 µM
- TGI [46]: 44.8 µM
- TGI [47]: 2.91 µM
- TGI [48]: 56.1 µM
- TGI [49]: > 53.2 µM
- TGI [50]: > 57.7 µM
- TGI [51]: 74.6 µM
- TGI [52]: 55 µM
- TGI [53]: 59.3 µM
- TGI [54]: > 100 µM
- TGI [55]: 51.2 µM
- TGI [56]: > 100 µM
- TGI [57]: 70.6 µM
- TGI [58]: 46.3 µM
- TGI [59]: 61.3 µM

Compound: CCOC(=O)c1sc2ncnc(N)c2c1C
- TGI [1]: > 100 µM
- TGI [2]: > 100 µM
- TGI [3]: > 100 µM
- TGI [4]: > 100 µM
- TGI [5]: > 100 µM
- TGI [6]: > 100 µM
- TGI [7]: > 100 µM
- TGI [8]: > 100 µM
- TGI [9]: 71.3 µM
- TGI [10]: > 100 µM
- TGI [11]: > 100 µM
- TGI [12]: > 100 µM
- TGI [13]: > 100 µM
- TGI [14]: 92.2 µM
- TGI [15]: > 100 µM
- TGI [16]: > 100 µM
- TGI [17]: > 100 µM
- TGI [18]: > 100 µM
- TGI [19]: > 100 µM
- TGI [20]: > 100 µM
- TGI [21]: > 100 µM
- TGI [22]: > 100 µM
- TGI [23]: > 100 µM
- TGI [24]: > 100 µM
- TGI [25]: > 100 µM
- TGI [26]: > 100 µM
- TGI [27]: > 100 µM
- TGI [28]: > 100 µM
- TGI [29]: > 100 µM
- TGI [30]: > 100 µM
- TGI [31]: > 100 µM
- TGI [32]: > 100 µM
- TGI [33]: > 100 µM
- TGI [34]: > 100 µM
- TGI [35]: > 100 µM
- TGI [36]: > 100 µM
- TGI [37]: > 100 µM
- TGI [38]: > 100 µM
- TGI [39]: > 100 µM
- TGI [40]: > 100 µM
- TGI [41]: > 100 µM
- TGI [42]: > 100 µM
- TGI [43]: > 100 µM
- TGI [44]: > 100 µM
- TGI [45]: > 100 µM
- TGI [46]: > 100 µM
- TGI [47]: > 100 µM
- TGI [48]: > 100 µM
- TGI [49]: > 100 µM
- TGI [50]: > 100 µM
- TGI [51]: > 100 µM
- TGI [52]: > 100 µM
- TGI [53]: > 100 µM
- TGI [54]: > 100 µM
- TGI [55]: > 100 µM
- TGI [56]: > 100 µM
- TGI [57]: > 100 µM
- TGI [58]: > 100 µM
- TGI [59]: > 100 µM

Compound: c1ccc([P+](CCCCCCCC[P+](c2ccccc2)(c2ccccc2)c2ccccc2)(c2ccccc2)c2ccccc2)cc1
- TGI [1]: > 100 µM
- TGI [2]: > 100 µM
- TGI [3]: > 73.7 µM
- TGI [4]: > 100 µM
- TGI [5]: > 100 µM
- TGI [6]: > 100 µM
- TGI [7]: 24.7 µM
- TGI [8]: > 100 µM
- TGI [9]: > 100 µM
- TGI [10]: 7.73 µM
- TGI [11]: > 50 µM
- TGI [12]: > 100 µM
- TGI [13]: 2.71 µM
- TGI [14]: 43.9 µM
- TGI [15]: > 100 µM
- TGI [16]: > 100 µM
- TGI [17]: > 100 µM
- TGI [18]: 49.5 µM
- TGI [19]: > 100 µM
- TGI [20]: > 100 µM
- TGI [21]: > 30.8 µM
- TGI [22]: > 100 µM
- TGI [23]: > 23.9 µM
- TGI [24]: 32.9 µM
- TGI [25]: > 100 µM
- TGI [26]: > 100 µM
- TGI [27]: 51.6 µM
- TGI [28]: > 100 µM
- TGI [29]: > 37.7 µM
- TGI [30]: > 100 µM
- TGI [31]: > 100 µM
- TGI [32]: > 100 µM
- TGI [33]: 23.8 µM
- TGI [34]: > 100 µM
- TGI [35]: > 52.8 µM
- TGI [36]: > 100 µM
- TGI [37]: > 100 µM
- TGI [38]: > 72.9 µM
- TGI [39]: > 94.4 µM
- TGI [40]: > 100 µM
- TGI [41]: > 87.5 µM
- TGI [42]: > 100 µM
- TGI [43]: > 68.4 µM
- TGI [44]: > 100 µM
- TGI [45]: > 86 µM
- TGI [46]: 12.1 µM
- TGI [47]: > 100 µM
- TGI [48]: > 100 µM
- TGI [49]: > 100 µM
- TGI [50]: > 48.1 µM
- TGI [51]: 19.6 µM
- TGI [52]: > 100 µM
- TGI [53]: > 100 µM
- TGI [54]: > 86.4 µM
- TGI [55]: > 31.8 µM
- TGI [56]: > 91.1 µM
- TGI [57]: > 100 µM
- TGI [58]: 40.7 µM
- TGI [59]: > 100 µM
